Data: US6503881B2 (priority 1996, dated 2003)
Read-outs that look alike come from different tables or passages of the source.

Test system: bacteria
[1] = A. calcoaceticus AC002, agarose dilution
[2] = E. cloacae ECL007, agarose dilution
[3] = E. coli ECO005, agarose dilution
[4] = E. faecalis EFS001, agarose dilution
[5] = E. faecalis EFS008, agarose dilution
[6] = K. pneumoniae KP001, agarose dilution
[7] = P. aeruginosa PA004, agarose dilution
[8] = S. aureus SA014, agarose dilution
[9] = S. aureus SA093, agarose dilution
[10] = S. epidermidis SE010, agarose dilution
[11] = S. maltophilia SMA002, agarose dilution
[12] = S. marcescens SMS003, agarose dilution

Substance | MIC (E. cloacae ECL007) | MIC (S. maltophilia SMA002) | MIC (A. calcoaceticus AC002) | MIC (E. coli ECO005) | MIC (K. pneumoniae KP001) | MIC (P. aeruginosa PA004) | MIC (S. epidermidis SE010) | MIC (S. marcescens SMS003) | MIC [1] | MIC [2] | MIC [3] | MIC [4] | MIC [5] | MIC [6] | MIC [7] | MIC [8] | MIC [9] | MIC [10] | MIC [11] | MIC (S. aureus SA093) | further results
I L R R W P W W P W R K [MBI 11B2CN] | >128 µg/mL | 64 µg/mL | – | – | – | – | – | – | – | – | – | – | – | – | – | – | – | – | – | – | MIC (A. calcoaceticus AC001): 64 µg/mL; MIC (E. coli ECO003): 16 µg/mL; MIC (E. faecalis EFS004): 8 µg/mL; MIC (E. faecium EFM001): 8 µg/mL; MIC (K. pneumoniae KP002): 64 µg/mL; MIC (P. aeruginosa PA003): >128 µg/mL; MIC (S. aureus SA005): 2 µg/mL; MIC (S. marcescens SMS004): >128 µg/mL
I L R R W P W W P W R R K [MBI 11B1CNW1] | 64 µg/mL | 32 µg/mL | 16 µg/mL | 32 µg/mL | 32 µg/mL | 64 µg/mL | 8 µg/mL | >128 µg/mL | – | – | – | – | – | – | – | – | – | – | – | – | MIC (E. faecalis EFS004): 8 µg/mL; MIC (S. aureus SA014): 16 µg/mL
I L R R W P W W P W R R R [MBI 11B9ACN] | – | – | – | – | – | – | – | – | – | – | – | – | – | – | – | – | – | – | – | – | MIC (A. calcoaceticus AC001): 32 µg/mL; MIC (E. coli ECO003): 8 µg/mL; MIC (E. faecalis EFS004): 8 µg/mL; MIC (E. faecium EFM001): 4 µg/mL; MIC (K. pneumoniae KP002): 32 µg/mL; MIC (P. aeruginosa PA005): >128 µg/mL; MIC (S. aureus SA019): 2 µg/mL; MIC (S. epidermidis SE002): 2 µg/mL; MIC (S. maltophilia SMA001): 16 µg/mL; MIC (S. marcescens SMS004): >128 µg/mL
I L R W P W W P W A R K [MBI 11H10CN] | – | – | – | – | – | – | – | – | 4 µg/mL | >128 µg/mL | 16 µg/mL | 2 µg/mL | 8 µg/mL | 16 µg/mL | >128 µg/mL | 4 µg/mL | 1 µg/mL | 4 µg/mL | 64 µg/mL | – | MIC [12]: >128 µg/mL
I L R W P W W P W R A K [MBI 11H11CN] | – | – | – | – | – | – | – | – | 4 µg/mL | >128 µg/mL | 16 µg/mL | 2 µg/mL | 8 µg/mL | 16 µg/mL | >128 µg/mL | 4 µg/mL | 1 µg/mL | 4 µg/mL | 64 µg/mL | – | MIC [12]: >128 µg/mL
I L R W P W W P W R R A [MBI 11H12CN] | – | – | – | – | – | – | – | – | 4 µg/mL | >128 µg/mL | 16 µg/mL | 2 µg/mL | 8 µg/mL | 16 µg/mL | >128 µg/mL | 2 µg/mL | 1 µg/mL | 4 µg/mL | 64 µg/mL | – | MIC [12]: >128 µg/mL
ILRWPWWPWRRKDMILKKAGS [MBI 11B18CN] | >128 µg/mL | 64 µg/mL | 2 µg/mL | 32 µg/mL | 32 µg/mL | >128 µg/mL | 4 µg/mL | >128 µg/mL | – | – | – | – | – | – | – | – | – | – | – | 2 µg/mL | MIC (E. faecalis EFS008): 4 µg/mL
ILRWPWWPWRRKMILKKAGS [MBI 11B17CN] | >128 µg/mL | 32 µg/mL | 2 µg/mL | 8 µg/mL | 16 µg/mL | >128 µg/mL | 4 µg/mL | >128 µg/mL | – | – | – | – | – | – | – | – | – | – | – | 2 µg/mL | MIC (E. faecalis EFS008): 4 µg/mL
I L R W P W W P W R R K [MBI 11B7CNF12] | – | – | – | – | – | – | – | – | 4 µg/mL | >128 µg/mL | 16 µg/mL | 2 µg/mL | 8 µg/mL | 16 µg/mL | >128 µg/mL | 2 µg/mL | 1 µg/mL | 4 µg/mL | 64 µg/mL | – | MIC [12]: >128 µg/mL
I L R Y V Y Y V Y R R K [MBI 11A8CN] | >128 µg/mL | 32 µg/mL | 8 µg/mL | 32 µg/mL | 128 µg/mL | >128 µg/mL | 6 µg/mL | >128 µg/mL | – | – | – | – | – | – | – | – | – | – | – | 1 µg/mL | MIC (E. faecalis EFS001): 4 µg/mL
K R R W P W W P W R L I [MBI 11B7CNR] | 64 µg/mL | 32 µg/mL | 4 µg/mL | 8 µg/mL | 8 µg/mL | 64 µg/mL | 4 µg/mL | >128 µg/mL | – | – | – | – | – | – | – | – | – | – | – | 2 µg/mL | MIC (E. faecalis EFS001): 4 µg/mL
K R R W V W W V W R L I [MBI 11F4CNR] | 32 µg/mL | 32 µg/mL | 16 µg/mL | 32 µg/mL | 32 µg/mL | 64 µg/mL | 3 µg/mL | >128 µg/mL | – | – | – | – | – | – | – | – | – | – | – | 8 µg/mL | MIC (E. faecalis EFS008): 32 µg/mL
L K K W P W W P W R R K [MBI 11D1CN] | >128 µg/mL | – | – | – | – | – | 8 µg/mL | >128 µg/mL | – | – | – | – | – | – | – | – | – | – | – | – | MIC (A. calcoaceticus AC001): >128 µg/mL; MIC (E. coli ECO002): 16 µg/mL; MIC (E. faecalis EFS002): 32 µg/mL; MIC (E. faecium EFM001): 16 µg/mL; MIC (K. pneumoniae KP002): 64 µg/mL; MIC (P. aeruginosa PA003): >128 µg/mL; MIC (S. aureus SA004): 2 µg/mL; MIC (S. maltophilia SMA001): 64 µg/mL
